The text below walks through data of patent US20130157345A1, “STABILIZATION AND ACTIVATION OF PROTEASE FOR USE AT HIGH TEMPERATURE” (ECOLAB USA INC., priority 2011, published 2013).

The subject of the assay is protein (gelatin) layers of photographic film. Briefly: Photographic film test: removal of gelatin protein layers by enzyme in heated water. It is filed as biochemical. To be noted: 400 ppm additive, 160-170° F. From the text: Photographic film contains a layer of a binding agent that is a protein (gelatin) which is readily attacked and removed by protease under ambient conditions. The film has multiple colored layers of the gelatin binding agent which can serve as an indication of the degree of attack if exposed to suitable enzymes. Photographic film was used in experiments to show the ability of enzymes, proteases, to attach or remove the protein layer under various conditions.
In the experiments outlined in Table 1, a beaker was charged with 5 grain tap water. An activator, “Additive 1”, was added to the beaker with the water temperature adjusted to the temperature as shown in the “Temp (F) Additive 1” column. The solution was then adjusted for the film test to the temperature as shown in “Temp (F) Enzyme” and a protease enzyme and section of photographic film added. The solution was stirred for 5 minutes and the film recovered and wiped with a paper towel for visual examination.
The additive, enzyme and then the combination of protease enzyme and additives were heated to the temperatures indicated in the applicable columns to analyze the various conditions under which the protease enzyme was able to readily attack and removed the protein (gelatin) layers of the photographic film. […]

Take `O=C(O)[C@@H]1CCCN1` [proline]: the “additive function as activator/stabilizer of enzymes at elevated temperatures” value is reported as “function to activate and/or stabilize enzymes”. To cocoamidyl propyl butane [CAPB] belongs “function to activate and/or stabilize enzymes”.
